Reference: patent EP0375451A2, “Compounds having a renin-inhibiting activity” (BEECHAM GROUP PLC, priority 1988, dated 1990)
Where a name gives a salt, the structure may show the parent alone.

Biological target: T1, human renin (Homo sapiens, UniProt P00797)
T1 construct: from tissue; host or cells: human plasma from blood of healthy volunteers
T1 sequence (P00797 67-406): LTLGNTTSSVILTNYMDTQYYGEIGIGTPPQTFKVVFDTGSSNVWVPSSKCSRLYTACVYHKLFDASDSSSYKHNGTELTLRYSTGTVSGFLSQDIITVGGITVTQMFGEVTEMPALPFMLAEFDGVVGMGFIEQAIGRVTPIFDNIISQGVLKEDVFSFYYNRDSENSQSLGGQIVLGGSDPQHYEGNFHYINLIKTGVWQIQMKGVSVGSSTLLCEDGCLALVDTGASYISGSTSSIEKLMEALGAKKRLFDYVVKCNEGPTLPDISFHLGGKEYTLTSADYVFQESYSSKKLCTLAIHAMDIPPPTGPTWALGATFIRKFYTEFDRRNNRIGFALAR
Assay: In vitro human renin inhibition (renin activity in human plasma, angiotensin I radioimmunoassay)
Format: biochemical
Settings: not given
Method: In vitro human renin inhibition
Renin inhibitory activity was estimated as the percentage change in renin activity in human plasma in the presence and absence of compound. The source of plasma was blood taken from healthy volunteers. Renin activity was defined by the difference in angiotensin I levels between two halves of a sample, one incubated at 37^o and the other at 4^o for 2h. Angiotensin I levels were measured using a ¹²⁵I- angiotensin I radioimmunoassay kit (NEN/DuPont, Stevenage). Results were calculated as the mean of at least two, duplicate determinations and IC₅₀ values were calculated by linear regression analysis of at least three concentrations of compound.

Compound	IC50 [µM]
CC(C)C[C@H](NC(=O)[C@H](Cc1ccccc1)NC(=O)CCn1c(=O)[nH]c2ccccc21)C(=O)N[C@@H](CC1CCCCC1)[C@@H](O)CC(=O)NCCCn1ccnc1 [Example E41, (2,3-Dihydro-2-oxo-1H-benzimidazole-1-propanoyl)-Phe-Leu-ACHPA 3-(1-imidazolyl)propylamide .0.5CHCl₃]	0.043
CC(=O)NCCNC(=O)C[C@H](O)[C@H](CC1CCCCC1)NC(=O)[C@H](CC(C)C)NC(=O)[C@H](Cc1ccccc1)NC(=O)CC1CS(=O)(=O)c2ccccc21 (stereo partly shown) [Example E6]	0.087

Same assay, conditions: human plasma from healthy volunteers; angiotensin I difference between 37° and 4° incubation for 2h; linear regression of at least three concentrations; read-out: IC₅₀

Compound	IC50 [µM]
CC(C)C[C@H](NC(=O)[C@H](Cc1ccccc1)NC(=O)CC1CS(=O)(=O)c2ccccc21)C(=O)N[C@@H](CC1CCCCC1)[C@@H](O)CC(=O)NCCN1CCN(C)CC1 (stereo partly drawn) [Example E22, (2,3-Dihydro-1,1-dioxobenzothiophene-3-yl)acetyl-Phe-Leu-ACHPA 2-(4-methylpiperazin-1-yl)ethylamide .2.5H₂O]	0.095
CC(C)C[C@H](NC(=O)[C@H](Cc1ccccc1)NC(=O)CC1CS(=O)(=O)c2ccccc21)C(=O)N[C@@H](CC1CCCCC1)[C@@H](O)CC(=O)NCCCN1CCCC1=O (stereo partly drawn) [Example E3, (2,3-Dihydro-1,1-dioxobenzothiophene-3-yl)acetyl-Phe-Leu-ACHPA 3-(2-oxopyrrolidin-1-yl) propylamide]	0.027
CC(C)C[C@H](NC(=O)[C@H](Cc1ccccc1)NC(=O)CC1COc2ccc(CN)cc21)C(=O)N[C@@H](CC1CCCCC1)[C@@H](O)CC(=O)NCCCn1ccnc1 (stereo partly drawn) [Example E13, (5-(Aminomethyl)-2,3-dihydrobenzofuran-3-yl)acetyl-Phe-Leu-ACHPA 3-(1-imidazolyl)propylamide .2(CF₃CO₂H).H₂O]	0.032
CC(C)C[C@H](NC(=O)[C@H](Cc1ccccc1)NC(=O)CC1CS(=O)(=O)c2cc(CN)ccc21)C(=O)N[C@@H](CC1CCCCC1)[C@@H](O)CC(=O)NCCCC(=O)O (stereo partly drawn) [Example E37, (6-(Aminomethyl)-2,3-dihydro-1,1-dioxobenzothiophene-3-yl)acetyl-Phe-Leu-ACHPA-NH(CH₂)₃CO₂H .CF₃CO₂H]	0.044
CC(C)C[C@H](NC(=O)[C@H](Cc1ccccc1)NC(=O)CCCC1Cc2ccc(N)cc2S1(=O)=O)C(=O)N[C@@H](CC1CCCCC1)[C@@H](O)CC(=O)NCCCn1ccnc1 (stereo partly drawn) [Example E34a, 4-(6-Amino-2,3-dihydro-1,1-dioxobenzothiophene-2-yl)butanoyl-Phe-Leu-ACHPA 3-(1-imidazolyl)propylamide]	0.012
CC(C)C[C@H](NC(=O)[C@H](Cc1ccccc1)NC(=O)CCCC1Cc2ccccc2S1(=O)=O)C(=O)N[C@@H](CC1CCCCC1)[C@@H](O)CC(=O)NCCCn1ccnc1 (stereo partly drawn) [Example E50a, 4-(2,3-Dihydro-1,1-dioxobenzothiophene-2-yl)butanoyl-Phe-Leu-ACHPA 3-(1-imidazolyl)propylamide]	0.014
CC(C)C[C@H](NC(=O)[C@H](Cc1ccccc1)NC(=O)CC1CS(=O)(=O)c2ccccc21)C(=O)N[C@@H](CC1CCCCC1)[C@@H](O)CC(=O)NCCCn1ccnc1 (stereo partly drawn) [El (a), (2,3-Dihydro-1,1-dioxobenzothiophene-3-yl)acetyl-Phe-Leu-ACHPA 3-(1-imidazolyl)propylamide .H₂O]	0.015
CC(C)C[C@H](NC(=O)[C@H](Cc1ccccc1)NC(=O)CC1COc2ccc(CNCC(=O)O)cc21)C(=O)N[C@@H](CC1CCCCC1)[C@@H](O)CC(=O)NCCCn1ccnc1 (stereo partly drawn) [Example E44, (5- (Carboxymethylaminomethyl)-2,3-dihydrobenzofuran-3-yl)acetyl-Phe-Leu-ACHPA 3-(1-imidazolyl)propylamide .3(CF₃CO₂H)]	0.048
COC(=O)CCCCNC(=O)C[C@H](O)[C@H](CC1CCCCC1)NC(=O)[C@H](CC(C)C)NC(=O)[C@H](Cc1ccccc1)NC(=O)CC1CS(=O)(=O)c2ccccc21 (stereo partly drawn) [Example E18, (2,3-Dihydro-1,1-dioxobenzothiophene-3-yl)acetyl-Phe-Leu-ACHPA-NH(CH₂)CO₂Me.0.5H₂O]	0.03
CC(C)C[C@H](NC(=O)[C@H](Cc1ccccc1)NC(=O)CC1CS(=O)(=O)c2ccccc21)C(=O)N[C@@H](CC1CCCCC1)[C@@H](O)CC(=O)NCCCCC(=O)O (stereo partly drawn) [Example E19, (2,3-Dihydro-1,1-dioxobenzothiophene-3-yl)acetyl-Phe-Leu-ACHPA-NH(CH₂)₄CO₂H]	0.045
CC(C)C[C@H](NC(=O)[C@H](Cc1ccccc1)NC(=O)CC1CS(=O)(=O)c2ccccc21)C(=O)N[C@@H](CC1CCCCC1)[C@@H](O)CC(=O)NCCCCn1ccnc1 (stereo partly drawn) [Example E14, (2,3-Dihydro-1,1-dioxobenzothiophene-3-yl)acetyl-Phe-Leu-ACHPA 4-(1-imidazolyl)butylamide .HCl.2H₂O]	0.037
CC(C)C[C@H](NC(=O)[C@H](Cc1ccccc1)NC(=O)CC1CS(=O)(=O)c2ccc(CN)cc21)C(=O)N[C@@H](CC1CCCCC1)[C@@H](O)CC(=O)NCCCn1ccnc1 (stereo partly drawn) [Example E43, (5-(Aminomethyl)-2,3-dihydro-1,1-dioxobenzothiophene-3-yl)acetyl-Phe-Leu-ACHPA 3-(1-imidazolyl)propylamide .3CF₃CO₂H.H₂O]	0.012
CC(C)C[C@H](NC(=O)[C@H](Cc1ccccc1)NC(=O)CC1CS(=O)(=O)c2cc(CN)ccc21)C(=O)N[C@@H](CC1CCCCC1)[C@@H](O)CC(=O)NCCCn1ccnc1 (stereo partly drawn) [Example E52, (6-(Aminomethyl)-2,3-dihydro-1,1-dioxobenzothiophene-3-yl)acetyl-Phe-Leu-ACHPA 3-(1-imidazolyl)propylamide .3(CF₃CO₂H)]	0.02

Same assay, conditions: read-out: IC₅₀; human plasma from healthy volunteers; angiotensin I difference between 37° and 4° incubation for 2h; linear regression of at least three concentrations

Compound	IC50 [µM]
CC(C)C[C@H](NC(=O)[C@H](Cc1ccccc1)NC(=O)CC1CS(=O)(=O)c2cc(CNC(=O)OC(C)(C)C)ccc21)C(=O)N[C@@H](CC1CCCCC1)[C@@H](O)CC(=O)NCCCn1ccnc1 (stereo partly shown) [Example E51]	0.053
